According to paper PMC7140114 (Cancers, 2020):
Numbered stars: 1 amine (or outer) side, 2 acyl side, 3 side chain; on linkers, the order of the positions; unused ones are H or OH. Square brackets hold non-standard residues; d marks the D form. Peptide text beside a SMILES is read from it. * marks the point of attachment. Dolaproine = CO[C@@H]([C@@H]1CCCN1)[C@@H](C)C(=O)O; X1 = N[C@@H](CSC1CC(=O)N(CCCCCC(=O)*)C1=O)C(=O)O; Dil = CC[C@H](C)[C@H](NC)[C@@H](CC(=O)O)OC; PABC = O=C(OCc1ccc(N[*:1])cc1)[*:2]; X2 = C[C@@H](N*)[C@@H](O)c1ccccc1; NMeV = CN[C@H](C(=O)O)C(C)C

What was measured:
HCC1954 cells = assay: In vitro cytotoxicity (CellTiter-Glo, 7 days), HCC1954; format: cell-based, human; details: HCC1954, HER2+++; for IC50: Homo sapiens, 168 h
Protocol: (§1) Human HER2-positive cell lines (BT-474, HCC1954, and NCI-N87) and HER2-negative cell lines (MCF-7 and MDA-MB-468) were purchased from the ATCC. Tumor cells were cultured in Roswell Park Memorial Institute (RPMI)-1640 medium (Cellgro, Manassas, VA, USA) supplemented with 10% fetal bovine serum (Invitrogen, Carlsbad, CA, USA) and GlutaMAX (Invitrogen, Carlsbad, CA, USA). Cells (3.3 × 10^4 cells/well) were added to each well of 384-well plates and incubated at 37 °C overnight, after which 10 μL of compound aliquots were added to the assay plate. […] Then, the plates were removed from the incubator and equilibrated at room temperature for 10 min. The Cell Titer Glo® (CTG, Promega, Madison, WI, USA) reagents were incubated at 37 °C before the experiment. The buffer was equilibrated to room temperature and used to dissolve the substrate. Then, 40 μL of CTG reagent was added to each well for detection (at 1:1 ratio to the culture medium).

MDA-MB-468 cells = assay: In vitro cytotoxicity (CellTiter-Glo, 7 days), MDA-MB-468; format: cell-based, human; details: MDA-MB-468, HER2−; for IC50: Homo sapiens, 168 h
Protocol: as §1

NCI-N87 cells = assay: In vitro cytotoxicity (CellTiter-Glo, 7 days), NCI-N87; format: cell-based, human; details: NCI-N87, HER2+++; for IC50: Homo sapiens, 168 h
Protocol: as §1

cells (cellular level) = details: cited from earlier work
BT-474 cells = assay: In vitro cytotoxicity (CellTiter-Glo, 7 days), BT-474; format: cell-based, human; details: BT-474, HER2+++; for IC50: Homo sapiens, 168 h
Protocol: as §1

tubulin = assay: Tubulin polymerization inhibition assay (fluorescence-based kit); format: biochemical; details: tested at 0.1-30 μM; mean of triplicate
Excerpt: In this study, we used a molecular-level tubulin inhibition assay to rapidly assess the efficacy of ionized conjugates to circumvent the effects of the differences in membrane permeability. […] All of the tested Cys-linker-MMAE conjugates produced concentration-dependent inhibition of tubulin polymerization, providing a basis for developing ADCs with Cys-linker-MMAE as potent payloads.
We used the Tubulin Polymerization Assay Kit (Cat. # BK011P, Cytoskeleton, Inc., Denver, CO, USA) according to the manufacturer’s instructions for this fluorescence-based test. Before this test, the linker-MMAE conjugates were added to an L-cysteine solution (0.3 mmol/L in H2O, 900 μL), and the mixture was incubated for 10 min at room temperature for the conversion to Cys-linker-MMAE conjugates according to previously reported methods.

MCF-7 cells = assay: In vitro cytotoxicity (CellTiter-Glo, 7 days), MCF-7; format: cell-based, human; details: MCF-7, HER2−; for IC50: Homo sapiens, MCF7, 168 h
Protocol: as §1

[1] = tested on: HER2-positive cell lines (BT-474, HCC1954, and NCI-N87) and HER2-negative cell lines (MCF-7, and MDA-MB-468); assay: In vitro cytotoxicity, summary over the cell line panel; format: cell-based, human; details: from Table 2 IC50 values
Protocol: as §1

Structure (SMILES) | Max. Inhibition (HCC1954 cells) [%] | IC50 (HCC1954 cells) [nM] | IC50 (MDA-MB-468 cells) [nM] | IC50 (NCI-N87 cells) [nM] | Max. Inhibition (NCI-N87 cells) [%] | IC50 (cells (cellular level)) [nM] | Max. Inhibition (BT-474 cells) [%] | IC50 (BT-474 cells) [nM] | EC50 (tubulin) [nM] | IC50 (MCF-7 cells) [nM] | Max. Inhibition (MCF-7 cells) [%] | Max. Inhibition (MDA-MB-468 cells) [%] | Decrease in activity compared to MMAE in each cell line [1]
CCC(C)C(C(CC(=O)N1CCCC1C(OC)C(C)C(=O)NC(C)C(O)c1ccccc1)OC)N(C)C(=O)C(NC(=O)C(NC)C(C)C)C(C)C (centres unmarked) [MMAE, Monomethyl auristatin E] | 97.54 | 0.07 | 0.17 | 0.07 | 89.37 | 0.01 to 1 | 79.09 | 0.32 | 1430 | 0.29 | 93.14 | – | –
CC[C@H](C)[C@@H]([C@@H](CC(=O)N1CCC[C@H]1[C@H](OC)[C@@H](C)C(=O)N[C@H](C)[C@@H](O)c1ccccc1)OC)N(C)C(=O)[C@@H](NC(=O)[C@H](C(C)C)N(C)C(=O)OCc1ccc(NC(=O)CCCCCN2C(=O)CC(SC[C@H](N)C(=O)O)C2=O)cc1)C(C)C (some centres unmarked) [Cys-15] ({X1-PABC}-[NMeV]V[Dil][Dolaproine]-X2) | 98.86 | 2.31 | 11.1 | 8.67 | 94.86 | – | 82.62 | 6.88 | 2320 | 51.2 | 91.13 | 85.75 | 22–177 fold
